In US20200085812A1, “HEAT SHOCK PROTEIN INDUCERS AND FRONTOTEMPORAL DISORDERS” (Orphazyme A/S, priority 2017, published 2020):

Key:
mutant VCP (mVCP) mice [1] = assay: In vivo physiology of EDL muscle: motor unit counts and maximal tetanic force; design: species or system mouse; conditions: 4 to 14 months, FIG. 1
Description: (§1) Arimoclomol treatment: Male mutant VCP (mVCP) mice were treated with Arimoclomol (120 mg/kg daily; orally in drinking water), from the start of symptom onset at 4 months, until close to end-stage at 14 months. Transgenic mice over-expressing wild-type human VCP (wt-VCP) were used as controls, and 10 male mice per group were studied; a sample size sufficient to test for statistical significance at P<0.05 in a single sex group.
In vivo physiology was carried out acutely at 14 months of age on terminally anaesthetized mice to quantify the number of motor units in the extensor digitorum longus (EDL) muscle in the hindlimb of mice in all experimental groups. Briefly, Isometric contractions were elicited by stimulating the Extensor Digitorum Longus (EDL) motor nerve using pulses of 0.02 ms duration and supramaximal intensity via electrodes. Contractions were elicited by stimulation of the sciatic nerve. The number of motor units in the EDL muscles was determined by stimulating the motor nerve with stimuli of increasing intensity, resulting in stepwise increments in twitch tension because of successive recruitment of motor axons.

HSP70 [2] = conditions: treated versus untreated mVCP mice; cited from earlier work
mutant VCP (mVCP) mice [3] = assay: Motor neuron counts and area measurements, sciatic pool of spinal cord; assay type: in vivo, mouse; conditions: 120 mg/kg daily orally, 4 to 14 months, FIG. 2
Description: as §1
20 μm spinal cord sections from L3-L6 were stained with gallocyanin to visualise neurons for quantification (5 mice per group). […] 20 images of the sciatic pool regions of the spinal cord were taken per animal to measure the size distribution of motor neurons present in this area (at ×20 magnification). A minimum of 3 mice per experimental group were assessed. The soma area of motor neurons was determined by drawing around individual Nissl stained (gallocyanin) motor neuron cell bodies in cross-sectional images of L4-L5 region of the spinal cord. This was recorded using Leica Application Suite V3.8 analysis software and presented as a percentage of the total number of motor neurons per group.

mutant VCP (mVCP) mice [4] = assay: Immunohistochemistry of brain and spinal cord for pathology markers (TDP-43, ubiquitin, p-tau, p62, LC3, myelin, stress granule markers); assay type: in vivo, mouse; conditions: 120 mg/kg daily orally, 4 to 14 months
Description: as §1
(§2) Brain and spinal cords were harvested from mice in all experimental groups following transcardial perfusion with saline followed by 4% paraformaldehyde (PFA). Brain and spinal cords were then kept in 4% PFA for 12 hours before being transferred to a 30% sucrose solution. Cross-sections of brain and spinal cords were cut at 20 μm and blocked in 10% Normal Goat serum with 0.1% Triton X100 in PBS before primary antibodies were added for 1 hour at room temperature. Primary antibodies: Rabbit anti-TDP-43 [1:500], Rabbit anti-ubiquitin [1:500], mouse anti-phospho tau (AT8) [1:100], Rabbit/mouse anti-Beta-3 tubulin [1:100], mouse anti-HSP70 [1:100], Mouse anti-p62 [1:200], Rabbit anti-LC3 [1:500]Rabbit anti-Iba1 [1:100], anti neurofilament 2H3 [1:20], Synaptic vesicle protein [1:20], Fluoromyelin Red myelin stain [1:300]. Fluorescently labelled or biotinylated secondary antibodies were used 1:1000 for 2 hours at room temperature. 4′6-Diamidino-2-Phenylindole, Dihydrochloride (DAPI) was used to counterstain for nuclei in all fluorescent images. Imaging of tissue was using a standard Leica light/fluorescent microscope or a LSM 780 confocal microscope.
(§3) Fluorescent images were visualised under a Leica fluorescent microscope and analysed using Leica Application Suite software (Leica Microsystems, Germany).

HSP70 [5] = assay: HSP70 immunostaining of brain and spinal cord of mVCP mice; assay type: in vivo, mouse
Description: as §1, §2, §3

mutant VCP (mVCP) mice [6] = conditions: cited from earlier work
[7] = test system: iPSC-derived motor neurons from mVCP patients; assay: TDP-43 immunostaining of mVCP patient iPSC-derived motor neurons; assay type: cell-based, human; conditions: 10 μM for 24 hours, FIG. 12 A
Description: (§4) iPSCs were maintained on Geltrex (Life Technologies) with Essential 8 Medium media (Life Technologies), and passaged using EDTA (Life Technologies, 0.5 mM). All cell cultures were maintained at 37° C. and 5% carbon dioxide. Motor neuron (MN) differentiation was carried out using a previously published protocol (Hall et al., 2017). Briefly, iPSCs were first differentiated to neuroepithelium by plating to 100% confluency in chemically defined medium consisting of DMEM/F12 Glutamax, Neurobasal, LGlutamine, N2 supplement, non-essential amino acids, B27 supplement, […] (all from Life Technologies) and insulin (Sigma). Treatment with small molecules from day 0-7 was as follows: 1 μM Dorsomorphin (Sigma), 2 μM SB431542 (Sigma), and 3 μM CHIR99021 (Sigma). At day 8, the neuroepithelial layer was enzymatically dissociated using dispase (GIBCO, 1 mg/ml), plated onto Geltrex coated plates and next patterned for 7 days with 0.5 μM retinoic acid and 1 μM Purmorphamine. At day 14 spinal cord MN precursors were treated with 0.1 μM Purmorphamine for a further 4 days before being terminally differentiated in 0.1 μM Compound E (Sigma) to promote cell cycle exit. Cells were treated with 10 μM Arimoclomol for 24 hours following terminal differentiation and fixed in PFA for immuno-labelling.

mutant VCP (mVCP) mice [8] = assay: TUNEL assay for apoptotic cells in brain; assay type: in vivo, mouse; conditions: 120 mg/kg daily orally, 4 to 14 months, FIG. 9
Description: as §1
Apoptosis in the brain was assessed by Terminal deoxynucleotidyl transferase (TdT) dUTP Nick-End Labeling (TUNEL) assay for apoptotic cells, where nuclei containing double-stranded breaks in the DNA fluoresce green (Fluoroscein-tagged), indicating DNA degradation at the later stage of apoptosis (FIG. 9). In some mVCP mice, TUNEL-positive nuclei in small areas of layer I in the cortex were detected which were not seen in control animals, indicating brain cells undergoing apoptosis.

HSP70 [9] = assay: HSP70 immunostaining of mVCP patient iPSC-derived motor neurons; assay type: cell-based, human; conditions: 10 μM for 24 hours, FIG. 12 B
Description: as §4

[10] = mVCP mice treated with Arimoclomol, previously published study

[O-][n+]1cccc(/C(Cl)=N/OC[C@H](O)CN2CCCCC2)c1 [Arimoclomol, N-[2-hydroxy-3-(1-piperidinyl)-propoxy]-pyridine-1-oxide-3-carboximidoyl chloride]
number of motor units in EDL muscle (motor unit survival) (mutant VCP (mVCP) mice [1]; 120 mg/kg daily orally in drinking water): reduction in motor unit survival is prevented
muscle force generated by the EDL muscle (mutant VCP (mVCP) mice [1]; 120 mg/kg daily orally, versus untreated mice): significantly greater than in untreated mice
expression of HSP70 in muscle (Western blot) (HSP70 [2]): two-fold
motor neuron survival in sciatic pool (L3-6) of spinal cord (mutant VCP (mVCP) mice [3]): reduction in motor neuron survival is prevented
shift towards smaller motor neuron soma size (mutant VCP (mVCP) mice [3]): This shift is not seen
accumulation of p62 in spinal cord (mutant VCP (mVCP) mice [4]; FIG. 5): significantly ameliorated
myelin abnormalities in spinal cord (mutant VCP (mVCP) mice [4]; FIG. 5): significantly ameliorated
increased LC3 expression in spinal cord (mutant VCP (mVCP) mice [4]; FIG. 5 D): significantly ameliorated
phosphorylated tau-positive (p-tau) extracellular aggregates/lesions in brain (mutant VCP (mVCP) mice [4]; FIG. 6): prevents the formation of these proteinaceous aggregates
TDP-43 cytoplasmic mislocalisation in brain and spinal cord (mutant VCP (mVCP) mice [4]; FIGS. 3 and 4): TDP-43 mislocalisation was reduced
ubiquitin-positive intracellular aggregates in brain and spinal cord (mutant VCP (mVCP) mice [4]; FIGS. 5 and 6): prevents the formation of these proteinaceous aggregates
fluorescence intensity of HSP70 immunoreactivity in spinal cord (quantification) (HSP70 [5]; mVCP mice treated versus untreated, FIG. 8 B): enhanced
HSP70 expression in glial cells of spinal cord and brain (HSP70 [5]; mVCP mice, 120 mg/kg daily orally, 4 to 14 months): increased expression of HSP70
HSP70 expression in brain and spinal cord (HSP70 [5]; mVCP mice, 120 mg/kg daily orally, 4 to 14 months, versus untreated mVCP, FIGS. 7 and 8): further augmented
maximal tetanic force of EDL muscle (mutant VCP (mVCP) mice [6]; 14 month old mVCP mice, versus wt-VCP controls, previously published study): prevented this reduction in muscle force
myofibre atrophy and degeneration (mutant VCP (mVCP) mice [6]; [10]): reduced myofibre atrophy and degeneration
protein aggregation and TDP-43 mislocalisation in skeletal muscle (mutant VCP (mVCP) mice [6]; [10]): decreased protein aggregation and TDP-43 mislocalisation
decline in grip strength relative to body weight (mutant VCP (mVCP) mice [6]; mVCP mice, 4 to 14 months of age, untreated mVCP 44.1% reduction): no significant decline in grip strength
cytoplasmic mislocalisation of TDP-43 [7]: ameliorated
TUNEL-positive apoptotic cells in brain cortex (mutant VCP (mVCP) mice [8]): prevented the appearance of apoptotic cells
HSP70 expression (HSP70 [9]): substantially increased
